The term IC50 denotes the concentration that gives 50% inhibition. Low values mean inhibition by little substance, high ones a need for much substance.

The target of one test is T1, KRAS G12D (Homo sapiens, UniProt P01116, G12D).
T1 construct: aa1-188 KRAS WT, HRAS WT, NRAS WT, or KRAS containing the G12D
The experiment in a line: HTRF nucleotide exchange assay, KRAS G12D. The test is classed as biochemical. The conditions noted are these: class symbols; for IC50: HTRF nucleotide exchange assay (NEA). As for the experimental part: (§1) HTRF Nucleotide Exchange Assay Method
(§2) The capacity of compounds to bind KRAS G12D, other KRAS mutants and wildtype RAS isoforms was quantified using a HTRF nucleotide exchange assay. Recombinant human RAS protein (2 nM; aa1-188 KRAS WT, HRAS WT, NRAS WT, or KRAS containing the G12D, G13D or Q61H amino acid substitutions, or 4 nM KRAS; aa1-188 containing the G12V, G12C, G12A or G12S amino acid substitution, an N-terminal 6× His-tag and leader sequence), and 2 nM Europium-labeled anti-6× His antibody were mixed in assay buffer (10 mM HEPES pH 7.3, 150 mM NaCl, 5 mM MgCl2, 0.05% BSA, 0.0025% NP-40 and 100 mM KF) with various concentrations of compound in a 384-well plate and a volume of 5 μL. After a 60-minute incubation at room temperature, 5 μl of 200 nM EDA-GTP-DY647P1 (diluted in assay buffer) was added to the plate. Following 30-minute incubation at room temperature, time-resolved fluorescence was measured on a PerkinElmer Envision plate reader. DMSO (0.3%) and unlabeled GDP (1 μM) or equivalent tool compound were used to generate the Max and Min assay signals, respectively. Data was analysed using a four-parameter logistic model to calculate IC50 values, with at least two independent replicates were performed for each compound. The results are presented as IC50s in Table 29 where “A” corresponds to an IC50 ≤10 nM, “B” to an IC50 >10 nM up to 100 nM, “C” is >100 nM up to 10 μM, “D” represents <49% inhibition at 10 μM and ND=not determined: […]
A general note: In TR-FRET formats the signal depends on donor and acceptor labels being close together.

In the next test the target is T2, KRAS WT (Homo sapiens, UniProt P01116).
T2 construct: aa1-188 KRAS WT
The test is described as follows: HTRF nucleotide exchange assay, KRAS WT. It is filed as biochemical. The conditions noted are these: class symbols; for IC50: HTRF nucleotide exchange assay (NEA). The method, then: as §1, §2

Molecules are shown by their SMILES.

Regarding `CCc1c(F)ccc2cc(O)cc(-c3c(F)c4nc(OCC5(CN6CC(F)(F)C6)CC5)nc(N5CCOCC(C)(O)C5)c4c4cn(C)nc34)c12` (stereo not drawn) [Example 191, 4-[7-[[1-[(3,3-difluoroazetidin-1-yl)methyl]cyclopropyl]methoxy]-4-(8-ethyl-7-fluoro-3-hydroxy-1-naphthyl)-5-fluoro-2-methyl-pyrazolo[4,3-f]quinazolin-9-yl]-6-methyl-1,4-oxazepan-6-ol], the concentration for half-maximal inhibition (IC50) against KRAS G12D was at most 0.01 µM; against KRAS WT, 0.01 to 0.1 µM.

Turning to `CCc1c(F)ccc2cc(O)cc(-c3cc4nc(OCC5CCCN5C)nc(N5CCCOCC5)c4c4cn(C)nc34)c12` (stereo not drawn) [Example 18, 5-ethyl-6-fluoro-4-[2-methyl-7-[(1-methylpyrrolidin-2-yl)methoxy]-9-(1,4-oxazepan-4-yl)pyrazolo[4,3-f]quinazolin-4-yl]naphthalen-2-ol], the half-maximal inhibitory concentration (IC50) against KRAS G12D and at KRAS WT was 0.01 to 0.1 µM throughout.

Regarding `CCc1c(F)ccc2cc(O)cc(-c3cc4nc(OC[C@@]56CCCN5C[C@H](F)C6)nc(N5CCNCC5)c4c4cn(C)nc34)c12` [Example 13, 5-ethyl-6-fluoro-4-[2-methyl-9-piperazin-1-yl-7-[[(2R,8S)-2-fluoro-1,2,3,5,6,7-hexahydropyrrolizin-8-yl]methoxy]pyrazolo[4,3-f]quinazolin-4-yl]naphthalen-2-ol], the IC50 is 0.01 to 0.1 µM against KRAS G12D and 0.1 to 10 µM on KRAS WT.

On to `CCc1c(F)ccc2cc(O)cc(-c3cc4nc(OC[C@@]56CCCN5C[C@H](F)C6)nc(N5CCC(CO)C5)c4c4cn(C)nc34)c12` (stereo partly drawn) [Example 122, 5-ethyl-6-fluoro-4-[9-[3-(hydroxymethyl)pyrrolidin-1-yl]-2-methyl-7-[[(2R,8S)-2-fluoro-1,2,3,5,6,7-hexahydropyrrolizin-8-yl]methoxy]pyrazolo[4,3-f]quinazolin-4-yl]naphthalen-2-ol], for which the half-inhibitory concentration (IC50) at KRAS G12D and at KRAS WT was at most 0.01 µM in each case.

`C#Cc1c(F)ccc2cc(O)cc(-c3cc4nc(OC[C@@]56CCCN5C[C@H](F)C6)nc(N5CCCNCC5)c4c4cn(C)nc34)c12` (single isomer, unassigned) [Example 35] gave an IC50 against KRAS G12D of 0.1 to 10 µM. For the same molecule, the “KRAS^WT NEA” value on KRAS WT is “D (<49% inhibition at 10 μM)”.

With `CCc1c(F)ccc2cc(O)cc(-c3c(F)c4nc(OCC5(CN6CC[C@H](O)C6)CC5)nc(N5CCOCC(C)(O)C5)c4c4cn(C)nc34)c12` (stereo partly drawn) [Example 190, 4-[4-(8-ethyl-7-fluoro-3-hydroxy-1-naphthyl)-5-fluoro-2-methyl-7-[[1-[[(3S)-3-hydroxypyrrolidin-1-yl]methyl]cyclopropyl]methoxy]pyrazolo[4,3-f]quinazolin-9-yl]-6-methyl-1,4-oxazepan-6-ol], the IC50 at KRAS G12D and at KRAS WT was at most 0.01 µM in each case.

Consider `CCc1c(F)ccc2cc(O)cc(-c3cc4nc(OC[C@@]56CCCN5C[C@H](F)C6)nc(N5CCCOCC5)c4c4cnn(C)c34)c12` [Example 46, 5-ethyl-6-fluoro-4-[3-methyl-9-(1,4-oxazepan-4-yl)-7-[[(2R,8S)-2-fluoro-1,2,3,5,6,7-hexahydropyrrolizin-8-yl]methoxy]pyrazolo[4,3-f]quinazolin-4-yl]naphthalen-2-ol], for which, on KRAS G12D, the “KRAS^G12D NEA” value is “D (<49% inhibition at 10 μM)”. On KRAS WT, this molecule came in with an IC50 of 0.1 to 10 µM.

With `CCc1c(F)ccc2cc(O)cc(-c3c(F)c4nc(OC[C@@H]5CCN5)nc(N5CCOCC(C)(O)C5)c4c4cn(C)nc34)c12` (stereo partly drawn) [Example 156, 4-[4-(8-ethyl-7-fluoro-3-hydroxy-1-naphthyl)-5-fluoro-2-methyl-7-[[(2S)-azetidin-2-yl]methoxy]pyrazolo[4,3-f]quinazolin-9-yl]-6-methyl-1,4-oxazepan-6-ol], the IC50 on KRAS G12D and on KRAS WT was at most 0.01 µM in each case.

Take `CCc1c(F)ccc2cc(O)cc(-c3c(F)c4nc(OCC5(CN6CCC6)CC5)nc(N5CCOCC(C)(O)C5)c4c4cn(C)nc34)c12` (stereo not drawn) [Example 214, 4-[7-[[1-(azetidin-1-ylmethyl)cyclopropyl]methoxy]-4-(8-ethyl-7-fluoro-3-hydroxy-1-naphthyl)-5-fluoro-2-methyl-pyrazolo[4,3-f]quinazolin-9-yl]-6-methyl-1,4-oxazepan-6-ol]: the IC50 at KRAS G12D and at KRAS WT was at most 0.01 µM in each case.

For `CCc1c(F)ccc2cc(O)cc(-c3c(F)c4nc(OCC5(C)CC(O)CN5)nc(N5CCOCC(C)(O)C5)c4c4cn(C)nc34)c12` (stereo not drawn) [Example 152, 4-[4-(8-ethyl-7-fluoro-3-hydroxy-1-naphthyl)-5-fluoro-7-[(4-hydroxy-2-methyl-pyrrolidin-2-yl)methoxy]-2-methyl-pyrazolo[4,3-f]quinazolin-9-yl]-6-methyl-1,4-oxazepan-6-ol], the IC50 at KRAS G12D and against KRAS WT was at most 0.01 µM each time.

As for `Cc1cc(N)nc(-c2cc3nc(OCC45CCCN4CC(F)C5)nc(N4CCCOCC4)c3c3cn(C)nc23)c1C(F)(F)F` [Example 16, 4-methyl-6-[2-methyl-9-(1,4-oxazepan-4-yl)-7-[(2R,8S)-2-fluoro-1,2,3,5,6,7-hexahydropyrrolizin-8-yl]methoxy]pyrazolo[4,3-f]quinazolin-4-yl]-5-(trifluoromethyl)pyridin-2-amine], the “KRAS^G12D NEA” value on KRAS G12D was “D (<49% inhibition at 10 μM)”. Moreover, the “KRAS^WT NEA” value at KRAS WT is reported as “D (<49% inhibition at 10 μM)”.

As to `CCc1c(F)ccc2cc(O)cc(-c3cc4nc(OC[C@@]56CCCN5C[C@H](F)C6)nc(N5CCCn6nc(CN(C)C)cc6C5)c4c4cn(C)nc34)c12` [Example 102, 4-[9-[2-[(dimethylamino)methyl]-4,6,7,8-tetrahydropyrazolo[1,5-a][1,4]diazepin-5-yl]-2-methyl-7-[[(2R,8S)-2-fluoro-1,2,3,5,6,7-hexahydropyrrolizin-8-yl]methoxy]pyrazolo[4,3-f]quinazolin-4-yl]-5-ethyl-6-fluoro-naphthalen-2-ol], the results for the half-maximal inhibitory concentration (IC50) against KRAS G12D and against KRAS WT were at most 0.01 µM and 0.01 to 0.1 µM, respectively.

Turning to `CCc1c(F)ccc2cc(O)cc(-c3c(C)c4nc(OC[C@@]56CCCN5C[C@H](F)C6)nc(N5CCC[C@@](C)(O)C5)c4c4cn(C)nc34)c12` [Example 95, (3R)-1-[4-(8-ethyl-7-fluoro-3-hydroxy-1-naphthyl)-2,5-dimethyl-7-[[(2R,8S)-2-fluoro-1,2,3,5,6,7-hexahydropyrrolizin-8-yl]methoxy]pyrazolo[4,3-f]quinazolin-9-yl]-3-methyl-piperidin-3-ol], the IC50 at KRAS G12D and against KRAS WT was at most 0.01 µM in each case.

Consider `CCc1c(F)ccc2cc(O)cc(-c3cc4nc(OC[C@@]56CCCN5C[C@H](F)C6)nc(N5CCCn6nc(C(=O)N7CCOCC7)cc6C5)c4c4cn(C)nc34)c12` [Example 24, [5-[4-(8-ethyl-7-fluoro-3-hydroxy-1-naphthyl)-2-methyl-7-[[(2R,8S)-2-fluoro-1,2,3,5,6,7-hexahydropyrrolizin-8-yl]methoxy]pyrazolo[4,3-f]quinazolin-9-yl]-4,6,7,8-tetrahydropyrazolo[1,5-a][1,4]diazepin-2-yl]-morpholino-methanone], for which the IC50 against KRAS G12D and against KRAS WT was at most 0.01 µM in each case.

As for `CCc1c(F)ccc2cc(O)cc(-c3c(F)c4nc(OC[C@@]56CCCN5C[C@H](F)C6)nc(N5CC6CCC5CN6)c4c4cn(C)nc34)c12` (stereo partly drawn) [Example 179, 4-[9-(2,5-diazabicyclo[2.2.2]octan-2-yl)-5-fluoro-2-methyl-7-[[(2R,8S)-2-fluoro-1,2,3,5,6,7-hexahydropyrrolizin-8-yl]methoxy]pyrazolo[4,3-f]quinazolin-4-yl]-5-ethyl-6-fluoro-naphthalen-2-ol], the concentration for half-maximal inhibition (IC50) on KRAS G12D and against KRAS WT was at most 0.01 µM each time.

The values above are taken from US20260347364A1, “PYRAZOLO[4,3-F]QUINAZOLINE DERIVATIVES AS MODULATORS OF G12D MUTANT KRAS USEFUL FOR THE TREATMENT OF CANCER” (JAZZ PHARMACEUTICALS IRELAND LTD., priority 2023, published 2026).
